Where two headings read alike, the source gives them in different places.
Tests used:
[1] = biological target: T1, rat histamine H3 receptor (Rattus norvegicus, UniProt Q9QYN8); experiment: Rat H3 radioligand binding ([3H]-N-alpha-methylhistamine, SPA)
T1 construct: encoding the entire 445-amino-acid rat histamine H3 receptor; expressed in transfected cells; membrane preparation
Procedure, shortened: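 Membranes from CHO-A3 cells stably expressing full-length rat H3 receptor (10 μg protein/well) incubated 4 h at room temperature, protected from light, with ~1 nM [3H]-N-alpha-methylhistamine and compound (0.01 nM-30 μM) in 50 mM Tris HCl pH 7.4, 5 mM MgCl2, 0.1% BSA. Binding read by SPA; 10 μM clobenpropit defined non-specific binding.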

human H3 receptor = biological target: T2, human H3 receptor (Homo sapiens, UniProt Q9Y5N1); experiment: Human H3 radioligand binding ([3H]-N-alpha-methylhistamine, SPA)
T2 construct: expressed in transfected cells
T2 sequence (Q9Y5N1 whole entry): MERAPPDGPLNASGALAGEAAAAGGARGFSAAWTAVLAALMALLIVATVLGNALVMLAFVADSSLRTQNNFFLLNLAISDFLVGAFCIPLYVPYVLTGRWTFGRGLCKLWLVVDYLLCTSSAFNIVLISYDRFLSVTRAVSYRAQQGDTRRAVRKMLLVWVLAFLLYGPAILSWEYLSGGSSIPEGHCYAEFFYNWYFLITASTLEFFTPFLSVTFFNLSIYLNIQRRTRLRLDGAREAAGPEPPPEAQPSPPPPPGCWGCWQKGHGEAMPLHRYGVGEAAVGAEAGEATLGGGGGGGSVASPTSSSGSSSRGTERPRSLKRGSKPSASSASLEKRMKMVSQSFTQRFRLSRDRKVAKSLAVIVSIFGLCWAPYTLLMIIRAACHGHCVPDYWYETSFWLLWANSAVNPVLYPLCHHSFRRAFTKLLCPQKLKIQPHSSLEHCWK
Procedure, shortened: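 SPA competition binding on membranes from CHO cells stably expressing human H3 receptor (10 μg protein/well) with ~1 nM [3H]-N-alpha-methylhistamine and compound at 0.01 nM-30 μM. Incubation 4 h at room temperature in 50 mM Tris-HCl pH 7.4, 5 mM MgCl2, 0.1% BSA; non-specific binding defined with 10 μM clobenpropit.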

[2] = Table A, rat H3 binding, read-out: Rat Ki
[3] = Table A, human H3 binding, read-out: Human Ki
[4] = Rat H3 binding, Table B, Examples 136-362, read-out: rat H3 binding Ki
[5] = Human H3 binding, Table B, Examples 136-362, read-out: hum H3 binding Ki

T1 sequence (Q9QYN8 whole entry): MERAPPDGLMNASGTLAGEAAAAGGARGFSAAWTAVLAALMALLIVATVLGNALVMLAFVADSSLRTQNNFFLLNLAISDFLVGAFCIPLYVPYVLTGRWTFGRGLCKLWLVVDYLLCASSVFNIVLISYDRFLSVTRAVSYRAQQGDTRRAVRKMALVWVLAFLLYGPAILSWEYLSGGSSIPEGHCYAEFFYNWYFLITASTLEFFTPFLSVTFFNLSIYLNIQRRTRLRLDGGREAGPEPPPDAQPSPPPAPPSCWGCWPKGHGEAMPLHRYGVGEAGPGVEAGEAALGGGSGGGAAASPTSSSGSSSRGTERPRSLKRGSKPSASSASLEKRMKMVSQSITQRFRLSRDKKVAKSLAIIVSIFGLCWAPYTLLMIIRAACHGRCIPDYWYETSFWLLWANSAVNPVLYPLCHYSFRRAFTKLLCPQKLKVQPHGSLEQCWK

Ki [1, 2] | Ki (human H3 receptor; [3]) | melting point | Ki [1, 4] | Ki (human H3 receptor; [5]) | Ki ([1]; Rat H3 binding, Table B, given as numeric bound instead of class symbol, read-out: rat H3 binding Ki) | Compound
200 to 1000 nM | > 1000 nM | 55 °C |  |  |  | O=C(c1ccc(-c2ccc3c(c2)OC2(CCN(C4CCC4)CC2)OC3)cc1)N1CCOCC1 [Example 97]
< 200 nM | < 200 nM | 186 to 188 °C |  |  |  | O=C1OCCN1c1ccc2c(c1)CCC1(CCN(C3CCC3)CC1)O2 [Example 119]
< 200 nM | < 200 nM | 195 to 197 °C |  |  |  | O=C1CCN1c1ccc2c(c1)CCC1(CCN(C3CCC3)CC1)O2 [Example 120]
< 200 nM | < 200 nM | 228 to 230 °C |  |  |  | CN1CCN(c2ccc3c(c2)CCC2(CCN(C4CCC4)CC2)O3)C1=O [Example 121]
< 200 nM | < 200 nM | 55 to 60 °C |  |  |  | N#Cc1ccc(Nc2ccc3c(c2)COC2(CCN(C4CCC4)CC2)O3)cc1 [Example 122]
< 200 nM | < 200 nM | 55 to 60 °C |  |  |  | N#Cc1cccc(Nc2ccc3c(c2)COC2(CCN(C4CCC4)CC2)O3)c1 [Example 123]
< 200 nM | < 200 nM | 52 to 57 °C |  |  |  | c1ccc(Nc2ccc3c(c2)COC2(CCN(C4CCC4)CC2)O3)cc1 [Example 124]
< 200 nM | < 200 nM | 54 to 58 °C |  |  |  | N#Cc1ccccc1Nc1ccc2c(c1)COC1(CCN(C3CCC3)CC1)O2 [Example 125]
< 200 nM | < 200 nM | 159 to 161 °C |  |  |  | c1ccc(Nc2ccc3c(c2)COC2(CCN(C4CCC4)CC2)O3)nc1 [Example 126]
< 200 nM | < 200 nM | 55 to 58 °C |  |  |  | c1cnc(Nc2ccc3c(c2)COC2(CCN(C4CCC4)CC2)O3)nc1 [Example 127]
< 200 nM | < 200 nM | 217 to 218 °C |  |  |  | N#Cc1cnc(Nc2ccc3c(c2)COC2(CCN(C4CCC4)CC2)O3)s1 [Example 128]
< 200 nM | < 200 nM | 170 to 171 °C |  |  |  | c1cc(Nc2ccc3c(c2)COC2(CCN(C4CCC4)CC2)O3)ncn1 [Example 129]
< 200 nM | < 200 nM | 211 to 213 °C |  |  |  | CNC(=O)c1ccc(Nc2ccc3c(c2)COC2(CCN(C4CCC4)CC2)O3)nc1 [Example 130]
< 200 nM | < 200 nM | 172 to 173 °C |  |  |  | CNC(=O)c1ccc(-c2ccc3c(n2)COC2(CCN(C4CCC4)CC2)O3)cc1F [Example 133]
< 200 nM | < 200 nM | 197 to 198 °C |  |  |  | CNC(=O)c1ccc(-c2ccc3c(c2)CC2(CCN(C4CCC4)CC2)O3)cc1 [Example 134, 1′-Cyclobutyl-spirobenzofuran-2(3H)-4′-piperidine-(5-(4-methylaminocarbamoylphenyl))]
< 200 nM | < 200 nM | > 25 °C |  |  |  | CS(=O)(=O)c1ccc(-c2ccc3c(c2)CC2(CCN(C4CCC4)CC2)O3)cc1 [Example 135, 1′-Cyclobutyl-spirobenzofuran-2(3H)-4′-piperidine-(5-(4-methylsulfonylphenyl))]
 |  | 57 to 61 °C | < 200 nM | < 200 nM |  | c1cnc(Nc2ccc3c(c2)COC2(CCN(C4CCC4)CC2)O3)cn1 [Example 136]
 |  | 145 to 149 °C | 200 to 1000 nM | < 200 nM |  | CNC(=O)N1CCN(c2ccc3c(c2)COC2(CCN(C4CCC4)CC2)O3)C(=O)C1 [Example 137]
 |  | 241 to 243 °C | < 200 nM | < 200 nM |  | Cc1ccccc1-c1ccc2c(c1)COC1(CCN(C3CCC3)CC1)O2 [Example 138]
 |  | 120 to 122 °C | < 200 nM | < 200 nM |  | O=C1C[C@@H](O)CN1c1ccc2c(c1)COC1(CCN(C3CCC3)CC1)O2 [Example 139]
 |  | 145 to 147 °C | < 200 nM | < 200 nM |  | O=C(NCCO)c1ccc(-c2ccc3c(c2)CCC2(CCN(C4CCC4)CC2)O3)cc1 [Example 140]
 |  | 145 to 147 °C | < 200 nM | < 200 nM |  | O=C(NCCO)c1ccc(-c2cc(F)c3c(c2)COC2(CCN(C4CCC4)CC2)O3)cc1 [Example 141]
 |  | 156 to 158 °C | < 200 nM | < 200 nM |  | CNC(=O)c1ccc(-c2cc(F)c3c(c2)COC2(CCN(C4CCC4)CC2)O3)cc1F [Example 142]
 |  | 181 to 183 °C | < 200 nM | < 200 nM |  | c1csc(-c2ccc3c(c2)COC2(CCN(C4CCC4)CC2)O3)n1 [Example 143]
 |  | 216 to 220 °C | < 200 nM | < 200 nM |  | CN(c1ccc2c(c1)COC1(CCN(C3CCC3)CC1)O2)c1ccccn1 [Example 144]

Ki [1, 2] | Ki (human H3 receptor; [3]) | melting point | Ki [1, 4] | Ki (human H3 receptor; [5]) | Ki ([1]; Rat H3 binding, Table B, given as numeric bound instead of class symbol, read-out: rat H3 binding Ki) | Compound
 |  | 152 to 155 °C | < 200 nM | < 200 nM |  | O=C1N(CCO)CCN1c1ccc2c(c1)COC1(CCN(C3CCC3)CC1)O2 [Example 146]
 |  | 215 to 217 °C | < 200 nM | < 200 nM |  | O=C(NCCO)c1ccc(-c2ccc3c(c2)CCC2(CCN(C4CCC4)CC2)O3)cc1F [Example 147]
 |  | 178 to 181 °C | < 200 nM | < 200 nM |  | O=C(c1ccc(-c2ccc3c(c2)COC2(CCN(C4CCC4)CC2)O3)cc1)N1CC[C@H](O)C1 [Example 148]
 |  | 215 to 217 °C | < 200 nM | < 200 nM |  | O=C(Nc1ccc2c(c1)COC1(CCN(C3CCC3)CC1)O2)c1cccnc1 [Example 149]
 |  | 180 to 182 °C | < 200 nM | < 200 nM |  | O=C(Nc1ccc2c(c1)COC1(CCN(C3CCC3)CC1)O2)c1ccncc1 [Example 150]
 |  | 186 to 187 °C |  | < 200 nM | > 300 nM | CN1CCN(c2ccc3c(c2)OC2(CCN(C4CCC4)CC2)O3)C1=O [Example 151]
 |  | 172 to 174 °C | < 200 nM | < 200 nM |  | O=C(Nc1ccc2c(c1)COC1(CCN(C3CCC3)CC1)O2)c1ccccn1 [Example 152]
 |  | 212 to 215 °C | < 200 nM | < 200 nM |  | N#Cc1cccc(C(=O)Nc2ccc3c(c2)COC2(CCN(C4CCC4)CC2)O3)c1 [Example 153]
 |  | 206 to 208 °C | < 200 nM | < 200 nM |  | N#Cc1ccc(C(=O)Nc2ccc3c(c2)COC2(CCN(C4CCC4)CC2)O3)cc1 [Example 154]
 |  | 156 to 158 °C | < 200 nM | < 200 nM |  | CC(C)(O)CNC(=O)c1ccc(-c2ccc3c(c2)COC2(CCN(C4CCC4)CC2)O3)cc1 [Example 155]
 |  | 67 to 69 °C | < 200 nM | < 200 nM |  | CNC(=O)c1ccc(-c2ccc3c(c2)CCC2(CCN(C4CCC4)CC2)O3)cn1 [Example 156]
 |  | 170 to 172 °C | < 200 nM | < 200 nM |  | N#Cc1ccc(NC(=O)Nc2ccc3c(c2)COC2(CCN(C4CCC4)CC2)O3)cc1 [Example 157]
 |  | 213 to 215 °C | < 200 nM | < 200 nM |  | c1cc(-c2ccc3c(c2)CCC2(CCN(C4CCC4)CC2)O3)ccc1C1=NCCO1 [Example 158]
 |  | 60 to 63 °C | 200 to 1000 nM | < 200 nM |  | O=C(c1ccccc1Nc1ccc2c(c1)COC1(CCN(C3CCC3)CC1)O2)N1CCOCC1 [Example 159]
 |  | 208 to 210 °C | < 200 nM | < 200 nM |  | CNC(=O)c1ccc(-c2ccc3c(c2)COC2(CCN(C4CCC4)CC2)O3)cn1 [Example 160]
 |  | 67 to 70 °C | 200 to 1000 nM | < 200 nM |  | O=c1oc2ccccc2n1-c1ccc2c(n1)COC1(CCN(C3CCC3)CC1)O2 [Example 161]
 |  | 229 to 231 °C | < 200 nM | < 200 nM |  | O=C(Nc1ccccc1)Nc1ccc2c(c1)COC1(CCN(C3CCC3)CC1)O2 [Example 162]
 |  | 166 to 168 °C | < 200 nM | < 200 nM |  | O=C(NCCO)c1ccc(-c2ccc3c(c2)COC2(CCN(C4CCC4)CC2)O3)cc1F [Example 163]
 |  | 200 to 203 °C | < 200 nM | < 200 nM |  | CNC(=O)c1cnc(-c2ccc3c(c2)COC2(CCN(C4CCC4)CC2)O3)s1 [Example 164]
 |  | 238 to 240 °C | 200 to 1000 nM | < 200 nM |  | O=C(Nc1ccc2c(c1)COC1(CCN(C3CCC3)CC1)O2)N1CCOCC1 [Example 165]
 |  | 50 to 53 °C | < 200 nM | < 200 nM |  | CN(C)C(=O)c1ccccc1Nc1ccc2c(c1)COC1(CCN(C3CCC3)CC1)O2 [Example 166]
 |  | 86 to 88 °C | < 200 nM | < 200 nM |  | Cc1n[nH]c(C)c1-c1ccc2c(c1)CCC1(CCN(C3CCC3)CC1)O2 [Example 167]
 |  | 145 to 147 °C | < 200 nM | < 200 nM |  | O=c1ccc(-c2ccc3c(c2)COC2(CCN(C4CCC4)CC2)O3)c[nH]1 [Example 168]
 |  | 66 to 74 °C | < 200 nM | < 200 nM |  | CN(C)C(=O)c1ccc(Nc2ccc3c(c2)COC2(CCN(C4CCC4)CC2)O3)cc1 [Example 169]
 |  | 238 to 240 °C | < 200 nM | < 200 nM |  | c1ccc(Nc2ccc3c(c2)OC2(CCN(C4CCC4)CC2)O3)cc1 [Example 170]
